Laboratory results published in US6858383B2, “Compositions and methods for the treatment and prevention of cardiovascular diseases and disorders, and for identifying agents therapeutic therefor” (Medlyte, Inc., priority 2000, dated 2005).
Blank lines part the entries; values can stand above or below the compound they belong to.

Columns and labels:
cultured cardiomyocytes [1] = experiment: S-1-P applied to cultured cardiomyocytes: apoptosis and calcium deregulation; format: cell-based, rat; settings: S-1-P treatment of cultured cardiomyocytes
From the text: Exogenously applied […] is capable of activating blood platelets (Yatomi et al., J. Biol. Chem. 272:5291-5297, 1997; Yatomi et al., Blood 86:193-202, 1995). […] The first is to act on the platelets to promote the clotting response and further exacerbate the ischemia. Secondly, the platelet-derived […] acts in a paracrine fashion on neighboring endothelial and myocardial cells to promote calcium deregulation and apoptosis. On the cardiomyocytes, the consequence is to promote calcium overload. The endothelial cell response is to promote vasoconstriction and further limit the blood supply through the coronary vasculature. […] Extracellular […] is the ligand for a novel class of G protein-coupled receptors (GPCRs). Such receptors were first described as an orphan GPCRs cloned from human umbilical vein endothelial cells (Hla et al., J. Biol. Chem. 265:9308-9313, 1990; Lynch et al., Trends Pharmacol. Sci. 20:473-475, 1999). […] However, cardiac tissues are composed of diverse cell types, including endothelial cells, which have high levels of EDG-1 expression (Hla et al., J. Biol. Chem. 265:9308-9313, 1990). […] Recently a EDG-1 gene and its protein expression were determined in primary cultures of neonatal rat cardiomyocytes and in adult rat ventricular tissue (Nakajima et al., Biophysical J. 78:319 A, 2000). […]

[2] = Fate of 3H-SPH incubated in whole blood, TLC; format: in vitro ADME, human
Procedure: Experiments were carried out to determine the fate of any SPH that might be released from cells or platelets into the extracellular compartment. Whole blood samples were incubated in vitro for up to 15 hours with ^3H-SPH, followed by thin layer chromatography (TLC) to examine which, if any, of the known metabolic products of the sphingomyelin pathway were radiolabeled as a result of metabolism of radiolabeled SPH.

cultured cardiomyocytes [3] = settings: S-1-P applied to cultured cardiomyocytes; cited from earlier work
Adult rat cardiomyocytes = experiment: Hypoxia-induced sphingosine (SPH) production/release in cultured cardiomyocytes, HPLC of extracted sphingolipids; format: cell-based
Procedure: Adult rat cardiomyocytes were subjected to hypoxic conditions as described above and assayed for their ability to produce sphingolipid bases involved in the sphingomyelin signal transduction cascade.
Cardiomyocytes were cultured on plastic dishes that were placed in a humidified modular incubator chamber (ICN Biomedicals, Aurora, Ohio) pressurized to 0.04-0.05 psi by the particular gas mixture used in the treatment. Warm (37° C.) Tyrode's solution containing 0.2 mM BSA, ampicillin ([…]), kanamycin (100 mg/mL) and fungizone (20 μg/mL) was gassed in a 50 mL sterile conical for 15 minutes with 95%N2/5% CO2 prior to adding the solution to the cultured cells. The pO2 was monitored by a Micro pO2 System oxygen electrode (Lasar Research Labs, Los Angeles, Calif.) and found to be 4.0 PPM for the duration of the hypoxia condition. […] The pH of control and experimental cell cultures was monitored with a micro pH electrode (Beetrode pH Electrodes, Sarasota, Fla.) and remained constant at pH=7.26+/−0.02 for normoxic cells and 7.15+/−0.03 for hypoxic cells throughout the experiment. […]
The HPLC analysis was performed using a Beckman (Fullerton, Calif.) System Gold 118 Solvent Module and 507e Autosampler. A Jasco (Easton, Md.) FP-920 Intelligent Fluorescence Detector was used with an excitation wavelength of 330 nm and emission wavelength of 455 nm. […]

[4] = test system: isolated perfused rat heart; experiment: Langendorff rat heart model of global ischemia and reperfusion; settings: 0.1 mM gentamicin recirculated 30 min; 40 min global ischemia; 45 min reperfusion
Procedure: A rat model of ischemia and reperfusion was used to evaluate the therapeutic potential of a gentamicin, an amino glycoside that inhibits sphingomyelinase.
Gentamicin vehicle solution was prepared as follows. A stock solution of 0.1 M Gentamicin was prepared by adding 70 mg of Gentamicin Sulfate (Sigma, G1264) to 1 ml of KH Buffer. KH buffer (150 ml) was combined with 150 μl)l of the stock solution to yield a 0.1 mM solution.
The protocol used was essentially that described by Sakai et al. (A device for recording left ventricular contraction and electrocardiogram in nonworking isolated perfused rat heart, Jpn J Pharmacol 28:223-9, 1978), and Zelinski et al., (Phosphatidylcholine biosynthesis in isolated hamster heart, J Biol Chem. 255:11423-8, 1980) with the exception, in the latter instance, that rat studies were used in the experiments described herein instead of hamster hearts.
In brief, rats were anesthetized and their hearts were excised. The isolated hearts were cannulated and attached to Langendorff perfusion apparatus, and perfused with KH buffer. The hearts were allowed to stabilize for 5-10 min. […]
A small hole was cut in the left atrium of each animal to expose the mitral valve. […] Left ventricular pressure was measured and recorded using the MacLab program. […]
After about 45 min., the perfusate was turned off and the ventricular pressure was no longer recorded. […]

[5] = target: tumor necrosis factor alpha (TNFα) released by cultured rat cardiomyocytes (rat) (UniProt P16599); experiment: cell-based or functional assay
Chain of tumor necrosis factor alpha (TNFα) released by cultured rat cardiomyocytes (rat) (P16599 80-235 limits assumed): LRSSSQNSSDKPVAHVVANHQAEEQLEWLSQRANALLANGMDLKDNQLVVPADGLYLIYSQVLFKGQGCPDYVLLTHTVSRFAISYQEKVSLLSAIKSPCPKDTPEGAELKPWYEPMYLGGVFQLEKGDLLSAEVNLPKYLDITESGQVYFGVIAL

stability in whole blood ([2]; 15-hour time course): very stable
Compound: CCCCCCCCCCCCC/C=C/[C@@H](O)[C@@H](N)COP(=O)(O)O [S-1-P, sphingosine-1-phosphate]
average calcium level combining both diastolic and systolic responses (cultured cardiomyocytes [1]): significantly increased | apoptosis of cultured cardiomyocytes (cultured cardiomyocytes [3]): resulted in apoptosis

conversion to ceramide or sphingomyelin ([2]; whole blood in vitro, up to 15 hours): not converted | conversion of 3H-SPH to 3H-S-1-P ([2]; whole blood in vitro, within 20 minutes): 86%
Compound: CCCCCCCCCCCCC/C=C/[C@@H](O)[C@@H](N)CO [^3H-SPH, D(+)-erythro-2-amino-4-trans-octadecene-1,3-diol]

Compound: C[N+](C)(C)C[C@H](O)CC(=O)[O-] [L-carnitine]
hypoxia-induced production of sphingosine (Adult rat cardiomyocytes; cellular model): blocks | amount of total SPH (Adult rat cardiomyocytes; pretreated 30 min prior to hypoxia (5 hours), TNFRII:Fc 0.5 ng/mL, L-carnitine 20 ng/mL, adult cardiomyocytes): significantly (p<0.01) reducing

Compound: gentamicin
ischemia and reperfusion injury (left ventricular pressure) [4]: mitigated

Compound: TNFRII:Fc receptor fragment (from UniProt P20333 23-257) (Fc fusion)
SPH release from hypoxic cardiomyocytes after pretreatment with TNFRII:Fc [5]: 3 fold
